Measured values from US9433655B2, “Composition comprising natural substance extract as active ingredient for preventing or treating acute renal failure” (priority 2012, dated 2016).
“Also recorded” adds a separate entry of the source.

Key:
renal epithelial cells = experiment: Measurement of GSH content; type: cell-based; settings: single treatment of cisplatin 25 μg/ml, 24 hours
Method: Monochlorobimane was employed to determine the GSH levels, and experiments for measuring GSH content were performed using the […] with reference to the conventional method of Fernandez-Checa and Kaplowitz. The number of cells, in which GSH is detectable, was determined by historical data and preliminary experiment, and 2×10^6 cells were seeded to each well of culture plate. After culture for 24 hours, the dilution fold of the final concentration of the drug determined as an active drug was considered and calculated, based on the results of MTT Assay and crystal violet Assay. […] Cells were harvested using 0.25% Trypsin-EDTA, and then centrifuged at 1,200 rpm for 3 minutes. Cold buffer was added to the resulting cell pellet, followed by sonication for 30 seconds. Centrifugation was carried out at 10,000 rpm for 15 minutes, and then the supernatant was collected and used for BCA protein quantification. 1 g/ml of MPA diluted in D.W was added to the supernatant at a volume ratio of 4:1, followed by immediately vortexing. […] End-point fluorescence wavelength at Ex: 360 nm and Em: 460 nm was measured at S=70. Data of the experimental results were analyzed using a Microsoft Excel program, and post-test analysis using Bonferroni multiple comparison test was performed to investigate the differences between the groups. p<0.001 was considered statistically significant.

p53 = experiment: Examination of p53 expression pattern (Western blot); type: cell-based; settings: single treatment of cisplatin
Method: Cells treated with Elsholtziae Herba extract and/or cisplatin were harvested, and RIPA buffer was added thereto, followed by sonication for cell lysis. Centrifugation was performed at 15,000 rpm for 15 minutes, and the supernatant was obtained, and subjected to protein quantification by BCA assay. The protein was loaded at an amount of 20 μg/10 μl in each well, and 12% SDS-PAGE polyacrylamide gel electrophoresis was performed, and transferred to a nitrocellulose membrane. The membrane was blocked with 5% Skim milk-TBST, and then treated with primary antibody (anti-p53/dilution—1:300). p53 was detected with HRP conjugated anti-mouse IgG (dilution—1:5000) and immune reaction was visualized by ECL. The measurement results are shown as Mean±S.E.M. (standard error of mean) in FIG. 6.

With `N.N.[Cl][Pt][Cl]` [cisplatin, cis-diaminedichloroplatinum II] the GSH content (renal epithelial cells) was “reduced GSH content” and the p53 expression level (p53) was “increased p53 expression; also recorded: remarkably increased”.
